Experimental findings from the NIST ThermoML archive (doi:10.1016/j.jct.2006.07.014) are described below.

For data set [1] the following is noted: Liquid; for mass density: 298.15 K, 101.33 kPa, Vibrating tube method.
Data set [2] can be described thus: refractive index (Na D-line) (dimensionless). To be noted: 298.15 K; 101.33 kPa; Liquid; Standard Abbe refractometry.

± gives the expanded uncertainty stated by the source.

Turning to `CC(C)CO` [2-methyl-1-propanol], the mass density in data set [1] was 797.8 ± 4.6 kg/m3. In addition, in data set [1] (379.45 K), the “vapor or sublimation pressure” value amounted to 94.83 ± 5 kPa. In addition, the refractive index in data set [2] worked out at 1.3939 ± 0.0012.

Turning to `CC(C)(C)O` [2-methylpropan-2-ol], in data set [1], the mass density is 781.2 ± 4.4 kg/m3. In data set [1] (353.85 K), the “vapor or sublimation pressure” value stood at 94.83 ± 5 kPa. Moreover, the refractive index in data set [2] came out at 1.3852 ± 0.0012.

On to `CC#N` [acetonitrile], for which, in data set [1], the mass density is on record as 776.5 ± 4.3 kg/m3. Further, the “vapor or sublimation pressure” value in data set [1] (352.25 K) was found to be 94.83 ± 5 kPa. For the same compound, the refractive index in data set [2] came to 1.3416 ± 0.0012.

As for `CCCCO` [butan-1-ol], the mass density in data set [1] is 805.8 ± 4.6 kg/m3. Further, the “vapor or sublimation pressure” value in data set [1] (389.15 K) is 94.83 ± 5 kPa. In addition, in data set [2], the refractive index amounted to 1.3974 ± 0.0012.

In the case of `CCC(C)O` (stereo not given) [butan-2-ol], the mass density in data set [1] is on record as 802.4 ± 4.6 kg/m3. Moreover, the “vapor or sublimation pressure” value in data set [1] (371.05 K) is reported as 94.83 ± 5 kPa. For the same compound, the refractive index in data set [2] was found to be 1.3953 ± 0.0012.
